For assay [1], the target named is T1, androgen receptor (Homo sapiens, UniProt P10275).
T1 sequence (P10275 1-920 Q868H): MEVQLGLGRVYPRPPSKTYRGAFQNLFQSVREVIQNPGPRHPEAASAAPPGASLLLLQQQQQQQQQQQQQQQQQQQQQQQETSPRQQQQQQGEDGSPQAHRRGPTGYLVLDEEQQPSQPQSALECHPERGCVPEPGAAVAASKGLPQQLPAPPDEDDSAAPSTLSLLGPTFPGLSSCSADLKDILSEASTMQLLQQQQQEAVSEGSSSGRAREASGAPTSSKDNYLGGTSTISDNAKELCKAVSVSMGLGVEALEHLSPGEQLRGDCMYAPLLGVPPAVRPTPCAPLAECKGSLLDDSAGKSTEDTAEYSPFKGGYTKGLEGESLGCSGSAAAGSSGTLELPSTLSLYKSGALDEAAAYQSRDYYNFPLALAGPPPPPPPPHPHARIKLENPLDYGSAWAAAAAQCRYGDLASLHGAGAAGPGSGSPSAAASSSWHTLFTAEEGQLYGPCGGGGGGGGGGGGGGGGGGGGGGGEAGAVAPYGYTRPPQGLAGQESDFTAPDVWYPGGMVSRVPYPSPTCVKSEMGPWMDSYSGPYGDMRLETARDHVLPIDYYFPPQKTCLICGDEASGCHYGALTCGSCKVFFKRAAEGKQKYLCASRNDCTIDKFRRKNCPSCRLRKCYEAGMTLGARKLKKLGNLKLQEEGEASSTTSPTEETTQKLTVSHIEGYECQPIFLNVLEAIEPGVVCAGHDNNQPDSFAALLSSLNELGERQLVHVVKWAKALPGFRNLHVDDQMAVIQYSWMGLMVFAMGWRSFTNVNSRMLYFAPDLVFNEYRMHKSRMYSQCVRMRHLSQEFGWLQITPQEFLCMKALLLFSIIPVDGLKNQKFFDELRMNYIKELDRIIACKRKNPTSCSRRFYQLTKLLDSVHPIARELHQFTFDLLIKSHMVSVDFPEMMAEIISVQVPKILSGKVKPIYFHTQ
Put plainly: AR Antagonist Cell Assay (MDA-MB453-MMTV clone 54-19, luciferase reporter). The assay is classed as cell-based. The settings on record: inhibition of induction by DHT (final concentration at 100 μM), 17 hr, compound 0.32-1000 nM, mean of multiple tests. The protocol: The compounds ability to antagonize the effects of androgen on the androgen receptor were determined in a whole cell assay as described immediately below.
Experimental Procedure for AR Antagonist Cell Assay
This cell line is a stable transfected cell line with MDA-MB453 cell background (a human breast tumor cell line expressing androgen receptor). A MMTV minimal promoter containing ARE was first cloned in front of a firefly luciferase reporter gene. Then the cascade was cloned into transfection vector pUV120puro. […] Puromycin resistant stable cell line was selected.
Cell Culture Media and Reagents:
Plating medium: DMEM (phenol red free), 10% charcoal treated HyClone serum, 1% L-glutamine
Assay medium: DMEM (phenol red free), 1% charcoal treated HyClone serum, 1% L-glutamine, 1% penicillin/streptomycin
Cells are maintained in culture medium, splitting cells when they reach 80-90% confluence
To test compounds, 10,000 cells/well are plated to opaque 96 cell culture plate in 100 ul/well plating medium, culture for overnight at 37° C. in cell culture incubator
Add 10 ul/well freshly prepared DHT (final concentration at […]) to each well, incubate at 37° C. for 17 hr (overnight)
Add 50 ul/well 3× luciferase buffer, incubate at room temperature for 5 minutes, then count on Luminometer
The results are reported as the mean of multiple tests described below (the numbers of tests are indicated in the footnote). N.D. denotes that the compound was not tested.
In general terms: A reporter such as luciferase makes a cellular process visible.

In assay [2] the target is T2, hAR (Homo sapiens, UniProt P10275).
T2 sequence (P10275 1-920): T1 sequence (P10275 1-920 Q868H) with H868Q
The assay can be described thus: Competitive binding of 3H-DHT to baculovirus/Sf9 generated hAR extracts. The settings on record: one hour at 4° C., mean of multiple tests. The method in brief: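 Baculovirus/Sf9-expressed hAR extract incubated with test compound, hydroxylapatite and 1 nM 3H-DHT tracer for 1 h at 4° C, then washed free of unbound tracer. Affinity given as concentration inhibiting half of maximal 3H-DHT binding.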

[3] abbreviates: IC50, concentration at which one half of maximum binding of 1 nM 3H-DHT to hAR is inhibited.

The values that follow come from patent US7674819B2 (Warner-Lambert Company LLC, priority 2005, dated 2010).

Residue numbers refer to the chain shown, from its start. pIC50: −log10 of the molar value. Read-outs that look alike come from different tables or passages of the source.

As to `CC1(C)CN(Cc2ccccc2)C(=O)C1Oc1ccc(C#N)c(C(F)(F)F)c1` (stereo not drawn) [Example 5, 4-(1-Benzyl-4,4-dimethyl-2-oxo-pyrrolidin-3-yloxy)2-trifluoromethyl-benzonitrile], the pIC50 in assay [1] was 7.92; in assay [2] (setting [3]), 7.49.

In the case of `CC1(C)CN(Cc2ccc(O)cc2)C(=O)C1Oc1ccc(C#N)c(C(F)(F)F)c1` (stereo not drawn) [Example 8, 4-[1-(4-Hydroxy-benzyl)-4,4-dimethyl-2-oxo-pyrrolidin-3-yloxy]-2-trifluoromethyl-benzonitrile], the pIC50 in assay [1] is 7.48; in assay [2] (setting [3]), 7.77.

`CC1(C)CN(Cc2ccccc2O)C(=O)C1Oc1ccc(C#N)c(C(F)(F)F)c1` (stereo not drawn) [Example 11, 4-[1-(2-Hydroxy-benzyl)-4,4-dimethyl-2-oxo-pyrrolidin-3-yloxy]-2-trifluoromethyl-benzonitrile]: the figures for the pIC50 in assay [1] and in assay [2] (setting [3]) were 7.85 and 7.77, respectively.

Turning to `COc1cccc(CN2CC(C)(C)C(Oc3ccc(C#N)c(C(F)(F)F)c3)C2=O)c1` (stereo not drawn) [Example 12, 4-[1-(3-Methoxy-benzyl)-4,4-dimethyl-2-oxo-pyrrolidin-3-yloxy]-2-trifluoromethyl-benzonitrile], the values for the pIC50 in assay [1] and in assay [2] (setting [3]) were 6.51 and 6.95, respectively.

Take `CC1(C)CN(Cc2cccc(O)c2)C(=O)C1Oc1ccc(C#N)c(C(F)(F)F)c1` (stereo not drawn) [Example 13, 4-[1-(3-Hydroxy-benzyl)-4,4-dimethyl-2-oxo-pyrrolidin-3-yloxy]-2-trifluoromethyl-benzonitrile]: the pIC50 in assay [1] was 6.50; in assay [2] (setting [3]), 7.96.

Consider `CC1(C)CN(Cc2ccccc2F)C(=O)C1Oc1ccc(C#N)c(C(F)(F)F)c1` (stereo not drawn) [Example 15, 4-[1-(2-Fluoro-benzyl)-4,4-dimethyl-2-oxo-pyrrolidin-3-yloxy]-2-trifluoromethyl-benzonitrile], for which the figures for the pIC50 in assay [1] and in assay [2] (setting [3]) were 7.15 and 7.32, respectively.

Regarding `CC1(C)CN(Cc2ccccc2F)C(=O)C1Oc1ccc(C#N)c(C(F)(F)F)c1` (stereo not drawn) [Example 16, 4-[1-(2-Fluoro-benzyl)-4,4-dimethyl-2-oxo-pyrrolidin-3-yloxy]-2-trifluoromethyl-benzonitrile], the negative logarithm of the IC50 (pIC50) is 7.37 in assay [1] and 7.59 in assay [2] (setting [3]).

With `CC1(C)CN(Cc2ccc(F)cc2)C(=O)C1Oc1ccc(C#N)c(C(F)(F)F)c1` (stereo not drawn) [Example 17, 4-[1-(4-Fluoro-benzyl)-4,4-dimethyl-2-oxo-pyrrolidin-3-yloxy]-2-trifluoromethyl-benzonitrile], the pIC50 in assay [1] was 6.67; in assay [2] (setting [3]), 6.84.

For the molecule `CC1(C)CN(Cc2cc(O)cc(O)c2)C(=O)C1Oc1ccc(C#N)c(C(F)(F)F)c1` (stereo not drawn) [Example 18, 4-[1-(3,5-Dihydroxy-benzyl)-4,4-dimethyl-2-oxo-pyrrolidin-3-yloxy]-2-trifluoromethyl-benzonitrile], the pIC50 in assay [1] was 8.10; in assay [2] (setting [3]), 7.35.

For `CCCCN1CC(C)(C)C(Oc2ccc(C#N)c(C(F)(F)F)c2)C1=O` (stereo not drawn) [Example 19, 4-(1-Butyl-4,4-dimethyl-2-oxo-pyrrolidin-3-yloxy)-2-trifluoromethyl-benzonitrile], the pIC50 in assay [1] was 7.72; in assay [2] (setting [3]), 6.82.

Regarding `CC(C)OC(=O)c1ccc(CN2CC(C)(C)C(Oc3ccc(C#N)c(C(F)(F)F)c3)C2=O)o1` (stereo not drawn) [Example 27, 5-[3-(4-Cyano-3-trifluoromethyl-phenoxy)-4,4-dimethyl-2-oxo-pyrrolidin-1-ylmethyl]-furan-2-carboxylic acid isopropyl ester], the pIC50 was 6.43 in assay [1] (read-out: IC50) and 7.36 in assay [2] (setting [3]).

Take `COC(=O)c1ccc(CN2CC(C)(C)C(Oc3ccc(C#N)c(C(F)(F)F)c3)C2=O)o1` (stereo not drawn) [Example 28, 5-[3-(4-Cyano-3-trifluoromethyl-phenoxy)-4,4-dimethyl-2-oxo-pyrrolidin-1-ylmethyl]-furan-2-carboxylic acid methyl ester]: the pIC50 in assay [1] (read-out: IC50) is 6.50; in assay [2] (concentration at which one half of maximum binding of 1 nM 3H-DHT to hAR is inhibited, read-out: IC50), 6.51.

Regarding `CCOC(=O)c1ccc(CN2CC(C)(C)C(Oc3ccc(C#N)c(C(F)(F)F)c3)C2=O)o1` (stereo not drawn) [Example 29, 5-[3-(4-Cyano-3-trifluoromethyl-phenoxy)-4,4-dimethyl-2-oxo-pyrrolidin-1-ylmethyl]-furan-2-carboxylic acid ethyl ester], the values for the pIC50 in assay [1] and in assay [2] (setting [3]) were 6.91 and 6.92, respectively.

On to `COC(=O)c1csc(CN2CC(C)(C)C(Oc3ccc(C#N)c(C(F)(F)F)c3)C2=O)n1` (stereo not drawn) [Example 30, 2-[3-(4-Cyano-3-trifluoromethyl-phenoxy)-4,4-dimethyl-2-oxo-pyrrolidin-1-ylmethyl]-thiazole-4-carboxylic acid methyl ester], for which the pIC50 is 6.09 in assay [1] and 6.67 in assay [2] (setting [3]).

On to `CC1(C)CN(Cc2ccncc2)C(=O)C1Oc1ccc(C#N)c(C(F)(F)F)c1` (stereo not drawn) [Example 35, 4-(4,4-Dimethyl-2-oxo-1-pyridin-4-ylmethyl-pyrrolidin-3-yloxy)-2-trifluoromethyl-benzonitrile], for which the figures for the pIC50 in assay [1] and in assay [2] (setting [3]) were 6.31 and 6.89, respectively.

Regarding `COC(=O)c1ccc(CN2CC(C)(C)C(Oc3ccc(C#N)c(C(F)(F)F)c3)C2=O)cc1` (stereo not drawn) [Example 37, 4-[3-(4-Cyano-3-trifluoromethyl-phenoxy)-4,4-dimethyl-2-oxo-pyrrolidin-1-ylmethyl]-benzoic acid methyl ester], the pIC50 in assay [1] was 7.08; in assay [2] (setting [3]), 7.33.

In the case of `CC1(C)CN(Cc2ccc3nsnc3c2)C(=O)C1Oc1ccc(C#N)c(C(F)(F)F)c1` (stereo not drawn) [Example 39, 4-(1-Benzo[1,2,5]thiadiazol-5-ylmethyl-4,4-dimethyl-2-oxo-pyrrolidin-3-yloxy)-2-trifluoromethyl-benzonitrile], the pIC50 was 7.13 in assay [1] and 7.19 in assay [2] (setting [3]).

As for `CC1(C)CN(Cc2nc3ccccc3s2)C(=O)C1Oc1ccc(C#N)c(C(F)(F)F)c1` (stereo not drawn) [Example 40, 4-(1-Benzothiazol-2-ylmethyl-4,4-dimethyl-2-oxo-pyrrolidin-3-yloxy)-2-trifluoromethyl-benzonitrile], the values for the pIC50 in assay [1] and in assay [2] (setting [3]) were 7.30 and 7.37, respectively.

In general, pIC50 refers to the negative decadic logarithm of the IC50, by convention in mol/L.
